Assay results: US20080306124A1, “Polycyclic Oxadiazoles or I Soxazoles and Their Use as Sip Receptor Ligands” (priority 2005, published 2008)

molecular target: T1, S1P1 (EDG-1) receptor (Homo sapiens, UniProt P21453); assay: S1P1 (EDG-1) GTP [γ-35S] binding assay, membranes from CHO cells; type: biochemical; conditions: membranes of CHO cells expressing human EDG-1
T1 construct: expressed in transfected cells
Experimental: A. In vitro: GPCR Activation Assay Measuring GTP [γ-^35S] Binding to Membranes Prepared from CHO Cells Expressing Human EDG Receptors
S1P1 (EDG-1) GTP [γ-^35S] binding assay: Homogenized membranes are prepared from CHO cell clones stably expressing a human EDG-1 N-terminal c-myc tag. Cells are grown in suspension in two 850 cm^2 roller bottles for three or fours days before harvesting. The cells are centrifuged down, washed once with cold PBS, and resuspended in ≦20 ml of Buffer A (20 mM HEPES, pH 7.4, […], EDTA-free complete protease inhibitor cocktail [1 tablet/25 ml]). The cell suspension is homogenized on ice, using a Polytron homogenizer at 30000 rpm at three intervals of 15 seconds each. The homogenate is first centrifuged at 2000 rpm on a tabletop low speed centrifuge for 10 minutes. The supernatant, after passing through a cell strainer, is then re-centrifuged at 50,000×g for 25 minutes at 4° C. The pellet is resuspended into buffer B (15% glycerol, 20 mM HEPES, pH 7.4, 0.1 mM EDTA, EDTA-free complete protease inhibitor cocktail [1 tablet/10 ml]). Protein concentration of the preparation is determined using the BCA Protein Assay kit (Pierce) using BSA as standard. The membranes are aliquoted and kept frozen at −80° C.
Solutions of test compounds ranging from 10 mM to 0.01 nM are prepared in DMSO. S1P is diluted in 4% BSA solution as positive controls. The desired amount of membrane preparation is diluted with ice-cold assay buffer (20 mM HEPES, pH 7.4, 100 mM NaCl, 10 mM MgCl2, 0.1% Fatty acid-free BSA, 5 μM GDP) and vortexed well. 2 μl or less of compound is distributed into each well of a round-bottom 96-well polystyrene assay plate, followed by addition of 100 µl of diluted membranes ([…]/well) and kept on ice until the addition of hot GTPγS. [^35S]-GTPγS is diluted 1:1000 (v/v) with cold assay buffer and 100 μl is added into each well. The reaction is carried out at room temperature for 90 minutes before the membranes are harvested onto Perkin-Elmer Unifilter® GF/B-96 filter plate using a Packard Filtermate Harvester. After several washes with wash buffer (20 mM HEPES, pH 7.4, 100 mM NaCl, 10 mM MgCl2), and a rinse with 95% ethanol, the filter is dried in a 37° C. oven for 30 minutes. MicroScint-20 is added and the plate sealed for scintillation counting on TopCount. EC50 values are obtained by fitting the GTP [γ-^35S] binding curves (raw data) with the dose response curve-fitting tool of GraphPad Prism. Six or twelve different concentrations are used to generate a concentration response curve (using three data points per concentration).

T1 sequence (P21453 whole entry): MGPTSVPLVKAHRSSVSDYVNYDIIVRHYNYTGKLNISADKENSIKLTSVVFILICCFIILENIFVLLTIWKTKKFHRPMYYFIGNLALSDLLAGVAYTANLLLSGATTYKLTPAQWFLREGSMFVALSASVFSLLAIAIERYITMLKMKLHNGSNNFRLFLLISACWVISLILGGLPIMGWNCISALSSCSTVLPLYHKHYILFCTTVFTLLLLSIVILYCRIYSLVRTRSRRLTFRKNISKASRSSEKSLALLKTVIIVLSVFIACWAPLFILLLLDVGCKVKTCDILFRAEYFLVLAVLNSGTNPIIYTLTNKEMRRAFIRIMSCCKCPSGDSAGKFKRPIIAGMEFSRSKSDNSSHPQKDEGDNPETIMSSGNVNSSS

EC50, < 1 nM:
CCc1ccccc1-c1ccc(-c2nc(-c3ccc(S(=O)(=O)NCC(=O)O)cc3)no2)cc1C(F)(F)F [Example 45]
O=C(O)CCNS(=O)(=O)c1ccc(-c2noc(-c3ccc(Oc4cccc(F)c4)c(C(F)(F)F)c3)n2)cc1 [Example 54]
NS(=O)(=O)c1ccc(-c2noc(-c3ccc(OC4CCCC4)c(C(F)(F)F)c3)n2)cc1 [Example 145]
CCc1cc(-c2noc(-c3ccc(-c4ccccc4F)c(C(F)(F)F)c3)n2)ccc1S(N)(=O)=O [Example 194, 2-Ethyl-4-[5-(2′-fluoro-2-trifluoromethyl-biphenyl-4-yl)-[1,2,4]oxadiazol-3-yl]-benzenesulfonamide]
CCc1cc(-c2noc(-c3ccc(C4CCCCC4)c(C(F)(F)F)c3)n2)ccc1S(N)(=O)=O [Example 196, 4-[5-(4-Cyclohexyl-3-trifluoromethyl-phenyl)-[1,2,4]oxadiazol-3-yl]-2-ethyl-benzenesulfonamide]
